Measurements taken from the supplement of paper PMC13380429.

How the values were obtained:
Settings in all cases: 72 h
[1] = system: Caco-2; test: cell viability relative to DMSO; higher = less toxic
[2] = system: Calu-3; test: as above
[3] = system: HepG2; test: as above
[4] = system: U2OS; test: as above
[5] = system: Vero E6; test: as above
[6] = system: Caco-2; test: relative viability EC50 (midpoint between 100% and the lowest measured viability); higher = less toxic
[7] = system: Calu-3; test: as above
[8] = system: HepG2; test: as above
[9] = system: U2OS; test: as above
[10] = system: Vero E6; test: as above
[11] = system: Caco-2; test: drug sensitivity score (DSS) for viability; higher = more toxic; extreme values may be limits of the assay
[12] = system: Calu-3; test: as above
[13] = system: HepG2; test: as above
[14] = system: U2OS; test: as above
[15] = system: Vero E6; test: as above

Structure (SMILES) | cell viability ([1]; 1 nM) [%] | cell viability ([1]; 10 nM) [%] | cell viability ([1]; 100 nM) [%] | cell viability ([1]; 1000 nM) [%] | cell viability ([1]; 10000 nM) [%] | cell viability ([2]; 1 nM) [%] | cell viability ([2]; 10 nM) [%] | cell viability ([2]; 100 nM) [%] | cell viability ([2]; 1000 nM) [%] | cell viability ([2]; 10000 nM) [%] | cell viability ([3]; 1 nM) [%] | cell viability ([3]; 10 nM) [%] | cell viability ([3]; 100 nM) [%] | cell viability ([3]; 1000 nM) [%] | cell viability ([3]; 10000 nM) [%] | cell viability ([4]; 1 nM) [%] | cell viability ([4]; 10 nM) [%] | cell viability ([4]; 100 nM) [%] | cell viability ([4]; 1000 nM) [%] | cell viability ([4]; 10000 nM) [%] | cell viability ([5]; 1 nM) [%] | cell viability ([5]; 10 nM) [%] | cell viability ([5]; 100 nM) [%] | cell viability ([5]; 1000 nM) [%] | cell viability ([5]; 10000 nM) [%] | relative viability EC50 [6] [µM] | relative viability EC50 [7] [µM] | relative viability EC50 [8] [µM] | relative viability EC50 [9] [µM] | relative viability EC50 [10] [µM] | drug sensitivity score [11] | drug sensitivity score [12] | drug sensitivity score [13] | drug sensitivity score [14] | drug sensitivity score [15]
COc1ccccc1Oc1c(NS(=O)(=O)c2ccc(C)cn2)nc(-c2ccncc2)nc1OC [SPP301] | 93.2 | 100 | 105 | 106 | 84.4 | 85.6 | 96.1 | 93.4 | 99 | 98 | 106 | 92.6 | 93.2 | 95.1 | 101 | 99.9 | 102 | 98.8 | 100 | 95.4 | 102 | 102 | 105 | 94.3 | 102 | > 10 | > 10 | > 10 | > 10 | > 10 | 0.1 | 0 | 0 | 0 | 0
CCN(CC)CCNC(=O)c1ccc(N)cc1 [procainamide] | 88.5 | 97.6 | 96.1 | 105 | 101 | 105 | 110 | 93.5 | 99.5 | 98.7 | 99.9 | 115 | 107 | 102 | 106 | 94.9 | 97.9 | 98.8 | 101 | 100 | 95.9 | 97.4 | 92.6 | 94.1 | 106 | > 10 | > 10 | > 10 | > 10 | > 10 | 0 | 0 | 0 | 0 | 0
Cc1cc(-c2cc(OC(=O)c3ccccc3)ccc2Cl)cc2nnc(Nc3ccc(OCCN4CCCC4)cc3)nc12 | 98.1 | 95.6 | 99 | 93 | 116 | 102 | 115 | 90.9 | 102 | 104 | 108 | 107 | 95.2 | 89 | 107 | 98.3 | 99 | 101 | 100 | 102 | 98.4 | 97.3 | 97.2 | 96.9 | 112 | > 10 | > 10 | > 10 | > 10 | > 10 | 0 | 0 | 0 | 0 | 0
C=C1CC[C@H](O)C/C1=C/C=C1\CCC[C@]2(C)[C@@H]([C@H](C)CCCC(C)(C)O)CC[C@@H]12 [calcifediol] | 107 | 90.2 | 107 | 92.3 | 91.8 | 98.2 | 91.4 | 78.8 | 103 | 107 | 92.6 | 103 | 97.1 | 103 | 101 | 106 | 97.5 | 105 | 98.1 | 95 | 98.9 | 95 | 98.1 | 97.3 | 97 | > 10 | > 10 | > 10 | > 10 | > 10 | 0 | 0 | 0 | 0 | 0
